In the NIST ThermoML archive (doi:10.1016/j.fluid.2016.02.035):

Assay: mn = molality of the nth substance listed, in mol/kg
Conditions: 101 kPa, Liquid; for speed of sound: Sing-around technique in a fixed-path interferometer; for mass density: Vibrating tube method

CCCC[N+](CCCC)(CCCC)CCCC.[Br-] [tetrabutylammonium bromide] + O
Conditions | mass density, 293.15 K [kg/m3] | mass density, 298.15 K [kg/m3] | mass density, 303.15 K [kg/m3] | speed of sound, 293.15 K [m/s] | speed of sound, 298.15 K [m/s] | speed of sound, 303.15 K [m/s]
m1 = 0.0015 | 998.245 | 997.085 | 995.686 | 1483.3 | 1497.3 | 1509.6
m1 = 0.0047 | 998.318 | 997.156 | 995.754 | 1484.1 | 1498.2 | 1510.3
m1 = 0.0061 | 998.352 | 997.187 | 995.785 | 1484.6 | 1498.6 | 1510.7
m1 = 0.013 | 998.509 | 997.335 | 995.926 | 1486.1 | 1500 | 1512.1
m1 = 0.0183 | 998.632 | 997.458 | 996.041 | 1487.7 | 1501.4 | 1513.3
m1 = 0.026 | 998.809 | 997.626 | 996.204 | 1489.5 | 1503.1 | 1514.9
m1 = 0.031 | 998.934 | 997.744 | 996.318 | 1490.9 | 1504.3 | 1516.1
m1 = 0.0492 | 999.359 | 998.14 | 996.704 | 1495.1 | 1508.4 | 1519.8
m1 = 0.0796 | 1000.08 | 998.844 | 997.37 | 1502.6 | 1515.2 | 1526.2
m1 = 0.0997 | 1000.55 | 999.297 | 997.802 | 1507.5 | 1519.7 | 1530.3
m1 = 0.1118 | 1000.85 | 999.574 | 998.068 | 1510.4 | 1522.4 | 1532.8
m1 = 0.1291 | 1001.26 | 999.966 | 998.443 | 1514.5 | 1526.2 | 1536.2
m1 = 0.1464 | 1001.68 | 1000.37 | 998.826 | 1518.5 | 1529.9 | 1539.7
m1 = 0.1626 | 1002.06 | 1000.73 | 999.177 | 1522.2 | 1533.3 | 1542.8
m1 = 0.1952 | 1002.85 | 1001.49 | 999.897 | 1529.5 | 1540.1 | 1548.9
m1 = 0.2309 | 1003.71 | 1002.3 | 1000.67 | 1537.5 | 1547.3 | 1555.6
m1 = 0.2732 | 1004.73 | 1003.27 | 1001.6 | 1546.5 | 1555.7 | 1563.3
m1 = 0.3073 | 1005.55 | 1004.05 | 1002.33 | 1553.8 | 1562.3 | 1569.3
m1 = 0.3449 | 1006.43 | 1004.88 | 1003.12 | 1561.7 | 1569.5 | 1575.8
m1 = 0.5437 | 1011.1 | 1009.3 | 1007.29 | 1599.5 | 1603.7 | 1606.7
m1 = 0.7712 | 1016.12 | 1014.01 | 1011.73 | 1636 | 1636.3 | 1635.7
